Values of other authors as cited in patent US7563779B2, “L-ergothioneine, milk thistle, and S-adenosylmethionine for the prevention, treatment and repair of liver damage” (Nutramax Laboratories, priority 1998, dated 2009).

Columns and labels:
[1] = test system: liver lipid accumulation; settings: rats chronically intoxicated with ethanol
[2] = test system: liver nodules, pre-neoplastic lesions and hepatocellular carcinomas; settings: administration of SAMe
[3] = test system: lipid peroxidation in liver tissue; settings: exogenous L-ergothioneine, liver tissue of rats
[4] = test system: lipid peroxide formation in mouse liver homogenate; settings: FIG. 5

## C[S+](CC[C@H](N)C(=O)O)C[C@H]1O[C@@H](n2cnc3c(N)ncnc32)[C@H](O)[C@@H]1O (stereo partly drawn) [SAMe, S-adenosylmethionine]
[1]
  lipid accumulation: decrease lipid accumulation
[2]
  amount of early reversible nodules: fall in the amount of early reversible nodules
  development of late pre-neoplastic lesions and hepatocellular carcinomas: prevention of the development of late pre-neoplastic lesions and hepatocellular carcinomas

## C[N+](C)(C)[C@@H](Cc1c[nH]c(=S)[nH]1)C(=O)[O-] [L-ergothioneine]
[3]
  lipid peroxidation by toxic compounds: prevent lipid peroxidation
[4]
  LPO formation: inhibited LPO formation
  decomposition of existing LPO: enhanced the decomposition of existing LPO
